According to EP0565593B1, “REDUCING PESTICIDAL INTERACTIONS IN CROPS” (priority 1990, dated 1992):

Columns and labels:
Corn = assay: Greenhouse test Procedure VII: biocide and antidote in furrow, herbicide POE (Examples 39-42, 48-50, 56-58; Tables 38-41, 47-49, 55-57); type: in vivo
Method in brief: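 Corn seed was planted in greenhouse pots, with COUNTER 15G insecticide plus antidote granules applied in-furrow (e.g. 1.1 + 0.37 mg a.i./cm, or 227 g/305 m with acetone-applied safeners). About five days later, herbicides in water with 0.25% v/v X-77 were track-sprayed post-emergence at 187 L/ha. Plant response was scored eight days afterward, with two to four replicates.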

RICE = assay: Multi-crop greenhouse test, soil-applied (Examples 65, 66; Tables 64, 65); type: in vivo
Experimental: (§1) Tests according to this invention in various crops indicate widespread application of the invention. In Examples 62-66 below are described tests with a variety of herbicides contacted with COUNTER® 15G in the presence and absence of MON-7400 (Antidote No. 12); MON-13900 (No. 1); MON-4660 (No. 16) and flurazole (No. 16). Those tests were conducted according to Procedures IV or V described above and illustrated further in other foregoing examples. Plants used in all tests were, for crops (as abbreviated in parentheses); cotton (COTT); soybean (SOBE); CORN, grain sorghum (GRSO); wheat (WHEA) and RICE, and the weeds giant foxtail (GIFT) and velvetleaf (VELE). The data in the tables below represent averages of two replications.
(§2) In this test the crops and weeds were planted 1.3 cm deep in 13.7 cm X 27.7 cm pans containing Dupo silt loam soil. The test safeners were applied in acetone solution and COUNTER 15G as dry granules to soil cover layers and incorporated by shaking in a bag. Treated cover layers were placed on seeded pans which were transferred to greenhouse benches and subirrigated. Herbicide was applied POE six (6) days after PPI initiation and observations of plant injury made ten (10) days later; results are shown in Table 61. The herbicide used in this example was BEACON (No. 8).
(§3) In another test in the several crops and weeds used in this test series, the herbicidal component was MON-12000 (No. 1); the other components were the same. the procedure used in this test was the same as that described in Example 62, modified to use a light overhead irrigation (about 0.32 cm/day) during days 4-7 of the test. Table 64 […]

Velvetleaf (VELE) = assay: as above; type: in vivo, Abutilon theophrasti
Experimental: as §1, §2, §3

[1] = Table 64, Herb. No. 1 0.018 Kg/Ha + Biocide No. 1 8.96 Kg/Ha + Antidote 4.48 Kg/Ha
[2] = Table 64, Herb. No. 1 0.07 Kg/Ha + Biocide No. 1 8.96 Kg/Ha + Antidote 4.48 Kg/Ha
[3] = Table 64, Herb. No. 1 0.28 Kg/Ha + Biocide No. 1 8.96 Kg/Ha + Antidote 4.48 Kg/Ha
[4] = Table 65, Herb. No. 1 0.018 Kg/Ha + Biocide No. 1 8.96 Kg/Ha + Antidote 4.48 Kg/Ha
[5] = Table 65, Herb. No. 1 0.07 Kg/Ha + Biocide No. 1 8.96 Kg/Ha + Antidote 4.48 Kg/Ha
[6] = Table 65, Herb. No. 1 0.28 Kg/Ha + Biocide No. 1 8.96 Kg/Ha + Antidote 4.48 Kg/Ha

## CC1(C)OC(c2ccco2)CN1C(=O)C(Cl)Cl (centres unmarked) [compound 1]
Corn; Antidote + Biocide No. 1 in furrow, Herbicide No. 1 0.14 Kg/Ha POE, 8 days after POE
  % Inhibition Corn: 15%
Corn; Antidote + Biocide No. 1 in furrow, Herbicide No. 4 0.17 Kg/Ha POE, 8 days after POE
  % Inhibition Corn: 10%
Corn; Antidote + Biocide No. 1 in furrow, Herbicide No. 5 0.07 Kg/Ha POE, 8 days after POE
  % Inhibition Corn: 15%
Corn; Antidote + Biocide No. 1 in furrow, Herbicide No. 6 0.01 Kg/Ha POE
  % Inhibition Corn: 15%
Corn; Antidote + Biocide No. 1 in furrow, Herbicide No. 7 0.56 Kg/Ha POE, 8 days after POE
  % Inhibition Corn: 10%
Corn; Antidote + Biocide No. 1 in furrow, Herbicide No. 9 0.009 Kg/Ha POE
  % Inhibition Corn: 10%
Corn; Antidote + Biocide No. 1 in furrow, Herbicide No. 10 0.002 Kg/Ha POE, 8 days after POE
  % Inhibition Corn: 15%
Corn; Antidote + Biocide No. 1 in furrow, Herbicide No. 15 0.0044 Kg/Ha POE, 8 days after POE
  % Inhibition Corn: 10%
Corn; Antidote + Biocide No. 1 in furrow, Herbicide No. 16 0.01 Kg/Ha POE
  % Inhibition Corn: 20%
Corn; Antidote + Biocide No. 1 in furrow, Herbicide No. 18 0.0044 Kg/Ha POE
  % Inhibition Corn: 15%
Corn; Antidote + Biocide No. 1 in furrow, Herbicide No. 19 0.28 Kg/Ha POE
  % Inhibition Corn: 20%
Corn; Antidote + Biocide No. 1 in furrow, Herbicide No. 21 0.14 Kg/Ha POE
  % Inhibition Corn: 20%
Corn; Antidote + Biocide No. 1 in furrow, Herbicide No. 23 0.0006 Kg/Ha POE
  % Inhibition Corn: 20%
Corn; C (COUNTER) + antidote in furrow, C:A Ratio 20, ACCENT 0.56 Kg/Ha POE
  % Inhibition Corn: 10%
Corn; C (COUNTER) + antidote in furrow, C:A Ratio 20, BEACON 0.28 Kg/Ha POE
  % Inhibition Corn: 5%
Corn; C (COUNTER) + antidote in furrow, C:A Ratio 40, ACCENT 0.56 Kg/Ha POE
  % Inhibition Corn: 10%
Corn; C (COUNTER) + antidote in furrow, C:A Ratio 40, BEACON 0.28 Kg/Ha POE
  % Inhibition Corn: 5%
Corn; C (COUNTER) + antidote in furrow, C:A Ratio 80, ACCENT 0.56 Kg/Ha POE
  % Inhibition Corn: 10%
Corn; C (COUNTER) + antidote in furrow, C:A Ratio 80, BEACON 0.28 Kg/Ha POE
  % Inhibition Corn: 10%
Corn; C (COUNTER) + antidote in furrow, C:A Ratio 160, ACCENT 0.56 Kg/Ha POE
  % Inhibition Corn: 15%
Corn; C (COUNTER) + antidote in furrow, C:A Ratio 160, BEACON 0.28 Kg/Ha POE
  % Inhibition Corn: 15%
Corn; Herbicide No. 1 0.14 Kg/Ha POE + Biocide No. 1 in furrow, no antidote, 8 days after POE
  % Inhibition Corn: 35%
Corn; Herbicide No. 1 0.14 Kg/Ha POE alone, 8 days after POE
  % Inhibition Corn: 0%
Corn; Herbicide No. 8 0.28 Kg/Ha POE + COUNTER 15G 227 g/305 m + antidote in furrow, C:A ratio 5
  % Corn Inhibition C:A Ratios 5: 3%
Corn; Herbicide No. 8 0.28 Kg/Ha POE + COUNTER 15G 227 g/305 m + antidote in furrow, C:A ratio 10
  % Corn Inhibition C:A Ratios 10: 3%
Corn; Herbicide No. 8 0.28 Kg/Ha POE + COUNTER 15G 227 g/305 m + antidote in furrow, C:A ratio 20
  % Corn Inhibition C:A Ratios 20: 0%
Corn; Herbicide No. 8 0.28 Kg/Ha POE + COUNTER 15G 227 g/305 m + antidote in furrow, C:A ratio 40
  % Corn Inhibition C:A Ratios 40: 0%
Corn; Herbicide No. 8 0.28 Kg/Ha POE + COUNTER 15G 227 g/305 m + antidote in furrow, C:A ratio 80
  % Corn Inhibition C:A Ratios 80: 3%
Corn; Herbicide No. 8 0.28 Kg/Ha POE + COUNTER 15G 227 g/305 m + antidote in furrow, C:A ratio 160
  % Corn Inhibition C:A Ratios 160: 13%
RICE; [1]
  % Inhibition RICE: 0%
RICE; [2]
  % Inhibition RICE: 10%
RICE; [3]
  % Inhibition RICE: 25%
RICE; [4]
  % Inhibition RICE: 10%
RICE; [5]
  % Inhibition RICE: 25%
RICE; [6]
  % Inhibition RICE: 95%
Velvetleaf (VELE); [1]
  % Inhibition VELE: 65%
Velvetleaf (VELE); [2]
  % Inhibition VELE: 85%
Velvetleaf (VELE); [3]
  % Inhibition VELE: 95%
Velvetleaf (VELE); [4]
  % Inhibition VELE: 10%
Velvetleaf (VELE); [5]
  % Inhibition VELE: 75%
Velvetleaf (VELE); [6]
  % Inhibition VELE: 90%
